Assay [1] in a line: Binding affinity to tobacco 14-3-3epsilon T14-3eDC mutant expressed in Escherichia coli assessed as Kd for 14-3-3epsilon binding to H+-ATPase peptide motif by surface plasmon resonance assay. The arrangement: species or system Nicotiana tabacum.
In assay [2] the target is T1, 14-3-3 protein zeta/delta (Homo sapiens, UniProt P63104).
T1 sequence (P63104 whole entry): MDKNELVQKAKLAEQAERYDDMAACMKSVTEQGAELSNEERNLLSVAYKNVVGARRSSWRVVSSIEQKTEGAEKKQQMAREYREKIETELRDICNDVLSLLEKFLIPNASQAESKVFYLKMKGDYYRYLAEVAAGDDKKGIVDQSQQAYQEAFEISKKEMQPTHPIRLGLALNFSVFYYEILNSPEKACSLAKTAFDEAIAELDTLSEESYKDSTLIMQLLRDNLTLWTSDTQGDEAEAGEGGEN
The assay is described as follows: Binding affinity to human GST-tagged 14-3-3zeta expressed in Escherichia coli assessed as Kd for 14-3-3zeta binding to H+-ATPase peptide motif by isothermal titration calorimetric method. On the technique in general: In ITC the heat of successive injections is recorded.

pKd: −log10 of the molar value.

Take `O=C(C1=C(O)C(=O)N(c2ccc(O)c(C(=O)O)c2)C1c1ccc([N+](=O)[O-])cc1)c1ccccc1` (stereo not drawn): the negative logarithm of the Kd (pKd) in assay [1] is 4.10.

Turning to `C=CC(C)(C)OC[C@H]1O[C@H](O[C@@H]2C3=C([C@H](C)COC(C)=O)C[C@H](O)[C@]3(C)/C=C3/[C@@H](COC)CC[C@H]3[C@@H](C)[C@H]2O)[C@H](O)[C@@H](OC(C)=O)[C@@H]1O`, in assay [2], the pKd is 6.15.

For `CC(C)CC(NC(=O)[C@H](O)[C@H](N)Cc1ccccc1)C(=O)O` (stereo partly drawn), the negative-log Kd (pKd) in assay [1] is 5.74.

As usually defined, the pKd is the Kd on a negative log10 scale, so that one unit is a factor of ten.

For the origin of these results see ChEMBL document CHEMBL4229430, “Inducing protein-protein interactions with molecular glues” (Bioorg Med Chem Lett, 2018).
